Assay results taken from US10842151B2, “Small molecule compound for enhancing plant stress resistance” (SHANGHAI INSTITUTES FOR BIOLOGICAL SCIENCES, CHINESE …, priority 2015, dated 2020).

Experiments:
[1] = system: soybean GmPYL3 and GmPYL6 + Arabidopsis AtHAB1; test: AlphaScreen experiment with soybean GmPYL receptors; type: binding; conditions: FIG. 9
Description: After incubating for 1.5 hours at room temperature in the dark, it was placed into an Envision Plate Reader (available from Perkin Elmer) under the programmed AlphaScreen procedure for readings.

[2] = system: Arabidopsis ABA synthesis defective mutant aba2-1; type: in vivo, Arabidopsis thaliana; conditions: 5 μM sprayed; after 4 days; vs DMSO
soybean Williams 82 = test: Soybean leaf transpiration experiment (thermal imaging); type: in vivo; conditions: 50 μM sprayed, 0.2 μmol per plant; after three days; vs DMSO
Description: After three weeks of continuous watering, 0.05% tween-20 and corresponding concentrations of DMSO (control)/compound (+)-ABA/0918/1127 were sprayed onto the plants in a single administration with an amount of 1.2 ml/pot. Images were taken daily using the FLIR A655sc thermal imaging camera at the same time before and after spraying. The Williams 82 ecotype was used in soybean leaf transpiration experiments for compounds 0604c, 0918 and 1127 and was long-day cultured at 26° C. After the plants grew and had 3 leaves in each of 3 groups, 0.05% tween-20 and 50 μM DMSO (control)/(+)-ABA/0604c/0918/1127 compounds were sprayed in a single administration with an amount of 4 ml/pot. Images were taken daily using the FLIR A655sc thermal imaging camera at the same time before and after spraying.
Leaf transpiration experiments of soybean and cotton for compound 0720B were carried out at 26° C. with long-day lighting. 16 days and 23 days after sowing, a solution containing 0.1% tween-20 and corresponding concentration of (+)-ABA, or 0720B compound or 0.1% Tween-20 and 0.05% DMSO (control) was sprayed in an amount of 4 ml/pot. Images were taken daily using the FLIR A655sc thermal imaging camera at the same time before and after spraying.

Kyoho grapes = test: Grape coloring experiment (anthocyanin content); type: in vivo; conditions: aqueous suspension; vs fresh water control
Description: The grapes used in the experiment were commercially available variety of Kyoho. According to weather conditions, during the color conversion period of grapes, the fruit ears with the same size and consistent growth were selected and soaked with a water suspension preparation containing 2000 mg/L, 1000 mg/L, 500 mg/L and 100 mg/L of 6% AMX compound 1127 for 10 seconds. Soaking in water was regarded as a control. Each experiment was repeated 10 times, each ear was regarded as a duplicate. Samples were collected after harvesting. Samples were collected from the upper, middle and lower parts of each ear in two directions, i.e., glossy and backlit, with 6 grains collected per ear. The samples were preserved in the laboratory at −20° C. for use.
30 pieces of pericarp were evenly taken from up and low portion around the equator of grape fruit by using a hole puncher with a diameter of 10 mm. After they were mixed well and weighed, the anthocyanin in the pericarp was determined. […] The content of anthocyanins (calculated as cornflower-3-glucoside equivalent) was determined by pH differential method and each treatment was repeated three times. Content of anthocyanins (mg/g) X=ΔA×F×M/ε×m, wherein ΔA was absorbance; F was fold of dilution; M is the relative molecular mass 449.2 of cyanidin-3-glucoside, ε is a molar extinction coefficient 26,900 for cyanidin-3-glucoside; m is sample mass.

[3] = Maximum tolerated dose, single oral gavage; type: in vivo; conditions: both sexes, rat, in vivo, 5000 mg/kg, SD rats
Description: (§1) The test substance used in the experiment was AMX compound 1127.
(§2) In the maximum tolerated dose of tested substance in single oral gavage experiment in SD rat, 8 SD rats were randomly divided into two groups, with […]. After a single oral gavage administration, rats were observed continuously for 14 days and dissected on the 15th day. The following indicators were evaluated: clinical observation, body weight and pathology examination (macroscopic morphology).

SD rat = test: Maximum tolerated dose, single oral gavage; type: in vivo; conditions: 5000 mg/kg, male and female rats
Description: as §1, §2

CCCN1C(=O)CCc2cc(NS(=O)(=O)Cc3c(F)c(F)c(C)c(F)c3F)ccc21 [Compound 1127]
affinities for soybean GmPYL proteins compared with ABA [1]: significantly higher affinities | leaf temperature [2]: still higher than that in the control group | leaf temperature (soybean Williams 82): still significantly higher than that in the DMSO-sprayed control | content of anthocyanin in grapes peel (Kyoho grapes): significantly higher than that in the fresh water control group | MTD at 14 days [3]: > 5000 mg/kg | clinical observation, body weight and macroscopic morphological observation of tissues/organs (SD rat): no drug-related changes were observed
